Test results reported in patent US6169181A, “Compounds useful to treat retroviral infections” (Pharmacia & Upjohn Company, priority 1998, dated 2001).
Several values for one entry are separate records, joined by “and”; a condition that tells them apart may be missing. Equal entries are not always repeated.

Biological target: T1, single chain tethered (tandem) HIV protease (HIV-1 M:B_HXB2R, UniProt P04585)
T1 construct: purified enzyme, FITC/biotin substrate assay
Test: Tandem HIV protease assay
Type: biochemical
Settings: read-out: FITC KI; Table II; enzyme HIV1TANDEM
Protocol: In the enzyme inhibition assay described above, the sensitivity of Ki value determination is in part limited by the ability to continue to lower the enzyme concentration for compounds with high binding affinity. To prevent de-dimerization at low enzyme concentration, a tandemly linked enzyme is prepared in which the two monomers are covalently linked by an appropriate stretch of amino acid residues. Using the latter enzyme, the sensitivity of the inhibition assay is improved since much lower enzyme concentration can be utilized, as compared to the condition using the wild-type enzyme.
The starting inhibitor concentrations are determined based on preliminary enzyme inhibition screening results which estimate the expected potency of the inhibitor. Inhibitor concentrations are then prepared using the Biomek 1000 (Beckman) and the Quadra 96 (Tomtec). Substrate (biotinylated at the amino terminal arginine and fluorescently labeled with fluorescein at the carboxyl terminal lysine), inhibitor and the tandem enzyme are allowed to react in solution at pH 5.5 (buffers identical to those used with the native dimeric enzyme) in the dark for 96 hours. Streptavidin coated polystyrene beads are added to stop the reaction. The labeled cleavage product is separated from unreacted substrate via filtration. Residual fluorescence is quantitated with the Idexx SM2000 (Idexx) and the resulting data are analyzed using the NLLSF program.

Compound	Ki
CC(C)(C)C(C1=C(O)CC(CCc2ccccc2)(CCC(F)(F)F)OC1=O)c1cccc(NS(=O)(=O)c2ccc(C#N)cn2)c1 (single isomer, unassigned) [Example 266, 5-cyano-N-[3-(R or S)-[1-[5,6-dihydro-4-hydroxy-2-oxo-6-(2-phenethyl)-6-(R or S)-(3,3,3-trifluoropropyl)-2H-pyran-3-yl]-2,2-dimethylpropyl]phenyl]-2-pyridinesulfonamide]	33 pM
CC(C)(C)C(C1=C(O)CC(CCc2ccccc2)(CCC(F)(F)F)OC1=O)c1cccc(NS(=O)(=O)c2ccc(N)cn2)c1 (single isomer, unassigned) [Example 268, 5-amino-N-[3-(R or S)-[1-[5,6-dihydro-4-hydroxy-2-oxo-6-(2-phenethyl)-6-(R or S)-(3,3,3-trifluoropropyl)-2H-pyran-3-yl]-2,2-dimethylpropyl]phenyl]-2-pyridinesulfonamide]	835 pM
CC(C)(C)C(C1=C(O)CC(CCc2ccccc2)(CCC(F)(F)F)OC1=O)c1cccc(NS(=O)(=O)c2ccc(N)cn2)c1 (single isomer, unassigned) [Example 271, 5-amino-N-[3-(R or S)-[1-[5,6-dihydro-4-hydroxy-2-oxo-6-(2-phenethyl)-6-(R or S)-(3,3,3-trifluoropropyl)-2H-pyran-3-yl]-2,2-dimethylpropyl]phenyl]-2-pyridinesulfonamide]	51 pM
CC(C)(C)C(C1=C(O)CC(CCc2ccccc2)(CCC(F)(F)F)OC1=O)c1cccc(NS(=O)(=O)c2ccc(C#N)cn2)c1 (single isomer, unassigned) [Example 272, 5-cyano-N-[3-(R or S)-[1-[5,6-dihydro-4-hydroxy-2-oxo-6-(2-phenethyl)-6-(R or S)-(3,3,3-trifluoropropyl)-2H-pyran-3-yl]-2,2-dimethylpropyl]phenyl]-2-pyridinesulfonamide]	3600 pM
CCC(C1=C(O)CC(CCc2ccccc2)(CCc2ccccc2)OC1=O)c1cccc(NS(=O)(=O)c2ccc(C(F)(F)F)cn2)c1 (single isomer, unassigned) [Example 287, 5-Trifluoromethyl-N-[3-(R or S)-[1-[4-hydroxy-2-oxo-6,6-di-phenethyl-5,6-dihydro-2H-pyran-3-yl]-propyl]-phenyl]-2-pyridinesulfonamide]	38 pM
CCC(C1=C(O)CC(CCc2ccccc2)(CCc2ccccc2)OC1=O)c1cccc(NS(=O)(=O)c2cc(C(F)(F)F)ccn2)c1 (single isomer, unassigned) [Example 289, 4-Trifluoromethyl-N-[3-(R or S)-[1-[4-hydroxy-2-oxo-6,6-di-phenethyl-5,6-dihydro-2H-pyran-3-yl]-propyl]-phenyl]-2-pyridinesulfonamide]	133 pM
CCC(C1=C(O)CC(CCc2ccccc2)(CCc2ccccc2)OC1=O)c1cccc(NS(=O)(=O)c2cc(C(F)(F)F)ccn2)c1 (single isomer, unassigned) [Example 290, 4-Trifluoromethyl-N-[3-(R or S)-[1-[4-hydroxy-2-oxo-6,6-di-phenethyl-5,6-dihydro-2H-pyran-3-yl]-propyl]-phenyl]-2-pyridinesulfonamide]	1880 pM
CCCC1(CCc2ccccc2)CC(O)=C(C(c2cccc(NS(=O)(=O)c3ccc(C(F)(F)F)cn3)c2)C(C)(C)C)C(=O)O1 (single isomer, unassigned) [Example 295, 5-Trifluoromethyl-N-[3 (R or S)-[1-[5,6-dihydro-4-hydroxy-2-oxo-6(R or S)-(2-phenethyl)-6(R or S)-n-propyl-2H-pyran-3-yl]-2,2-dimethylpropyl]-phenyl]-2-pyridinesulfonamide]	71 pM
CCCC1(CCc2ccccc2)CC(O)=C(C(c2cccc(NS(=O)(=O)c3cc(C(F)(F)F)ccn3)c2)C(C)(C)C)C(=O)O1 (single isomer, unassigned) [Example 296, 4-Trifluoromethyl-N-[3(R or S)-[1-[5,6-dihydro-4-hydroxy-2-oxo-6(R or S)-(2-phenethyl)-6(R or S)-n-propyl-2H-pyran-3-yl]-2,2-dimethylpropyl]-phenyl]-2-pyridinesulfonamide]	42 pM
CCC[C@@]1(CCc2ccccc2)CC(O)=C([C@@H](c2cccc(NS(=O)(=O)c3ccc(C#N)cn3)c2)C(C)(C)C)C(=O)O1 (single isomer, unassigned) [Example 302, 5-Cyano-N-[3(R or S)-(1-[5,6-dihydro-4-hydroxy-2-oxo-6(R or S)-(2-phenylethyl)-6-propyl-2H-pyran-3-yl]-2,2-dimethylpropyl)-phenyl]-2-pyridinesulfonamide]	1870 pM and 3600 pM
CCC[C@@]1(CCc2ccccc2)CC(O)=C([C@@H](c2cccc(NS(=O)(=O)c3ccc(N)cn3)c2)C(C)(C)C)C(=O)O1 (single isomer, unassigned) [Example 312, 5-Amino-N-[3(R or S)-(1-[5,6-dihydro-4-hydroxy-2-oxo-6(R or S)-(2-phenylethyl)-6-propyl-2H-pyran-3-yl]-2,2-dimethylpropyl)-phenyl]-2-pyridinesulfonamide]	255 pM
CCCC1(CCC)CC(O)=C(C(c2cccc(NS(=O)(=O)c3ccc(N)cn3)c2)C(C)(C)C)C(=O)O1 (single isomer, unassigned) [Example 320, 5-Amino-N-[3(R or S)-(1-[5,6-dihydro-6,6-dipropyl-4-hydroxy-2-oxo-2H-pyran-3-yl]-2,2-dimethyl-propyl)phenyl]-2-pyridine sulfonamide]	71 pM and 50 pM and 75 pM
CCCC1(CCC)CC(O)=C(C(c2cccc(NS(=O)(=O)c3ccc(C#N)cn3)c2)C(C)(C)C)C(=O)O1 (single isomer, unassigned) [Example 322, 5-Cyano-N-[3(R or S)-(1-[5,6-dihydro-6,6-dipropyl-4-hydroxy-2-oxo-2H-pyran-3-yl]-2,2-dimethyl-propyl)phenyl]-2-pyridine-sulfonamide]	1070 pM and 1290 pM
CCC(C1=C(O)CC(CCc2ccccc2)(CCc2ccccc2)OC1=O)c1cccc(NS(=O)(=O)c2cn(C)cn2)c1 (single isomer, unassigned) [Example 324, N-[3(R or S)-(1-[6,6-Bis(2-phenyl-ethyl)-5,6-dihydro-4-hydroxy-2-oxo-2H-pyran-3-yl]propyl)phenyl]-1-methyl-1H-imidazole-4-sulfonamide]	156 pM
CCC(C1=C(O)CC(CCc2ccccc2)(CCc2ccccc2)OC1=O)c1cccc(NS(=O)(=O)c2ccc(C#N)cn2)c1 (single isomer, unassigned) [Example 326, N-[3(R or S)-(1-[6,6-Bis(2-phenyl-ethyl)-5,6-dihydro-4-hydroxy-2-oxo-2H-pyran-3-yl]propyl)phenyl]-5-cyano-2-pyridinesulfonamide]	29 pM
Cn1cnc(S(=O)(=O)Nc2cccc(C(C3=C(O)CC(CCc4ccccc4)(CCc4ccccc4)OC3=O)C(C)(C)C)c2)c1 (single isomer, unassigned) [Example 357, N-[3-{1(R or S)-(4-Hydroxy-5,6-dihydro-2-oxo-6,6-bis(2-phenylethyl)-2H-pyran-3-yl)-2,2-dimethylpropyl}phenyl]-1-methyl-1H-imidazole-4-sulfonamide]	48500 pM
CC(C)(C)C(C1=C(O)CC(CCc2ccccc2)(CCc2ccccc2)OC1=O)c1cccc(NS(=O)(=O)c2ccc(C#N)cn2)c1 (single isomer, unassigned) [Example 359, N-[3-{1(R or S)-(4-Hydroxy-5,6-dihydro-2-oxo-6,6-bis(2-phenylethyl)-2H-pyran-3-yl)-2,2-dimethylpropyl}phenyl]-5-cyanopyridine-2-sulfonamide]	16400 pM
CCCC1(CCC)CC(O)=C(C(CC)c2cccc(NS(=O)(=O)c3ccc(N)cn3)c2)C(=O)O1 (single isomer, unassigned) [Example 363, N-[3-{1(R or S)-(4-Hydroxy-5,6-dihydro-2-oxo-6,6-dipropyl-2H-pyran-3-yl)-propyl}phenyl]-5-aminopyridine-2-sulfonamide]	83 pM
CCC[C@@]1(CCc2ccc(F)cc2)CC(O)=C([C@H](CC)c2cccc(NS(=O)(=O)c3ccc(C#N)cn3)c2)C(=O)O1 (single isomer, unassigned) [Example 365, N-[3-{1(R or S)-(4-Hydroxy-5,6-dihydro-2-oxo-6(R or S)-(2-(4-fluorophenyl)ethyl)-6-propyl-2H-pyran-3-yl)propyl}phenyl]-5-cyanopyridine-2-sulfonamide]	23 pM
CCC[C@@]1(CCc2ccc(F)cc2)CC(O)=C([C@H](CC)c2cccc(NS(=O)(=O)c3cn(C)cn3)c2)C(=O)O1 (single isomer, unassigned) [Example 368, N-[3-{1(R or S)-(4-Hydroxy-5,6-dihydro-2-oxo-6(R or S)-(2-(4-fluorophenyl)ethyl)-6-propyl-2H-pyran-3-yl)propyl}phenyl]-1-methyl-1H-imidazole-4-sulfonamide]	232 pM
